Test [1] has as its system Escherichia coli SOL 90. Put plainly: MIC, in vitro dilution method, Escherichia coli SOL 90 (Table III). The test is classed as cell-based. The conditions noted are these: SOL90; Escherichia coli SOL 90; dilution method; read-out: MIC. The procedure, abridged:
(§1)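 Compounds are serially diluted in vitro and tested for bacteriostatic effect on each Gram-negative strain; the lowest inhibiting concentration is recorded as MIC (μg/ml).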

The test system of the next test is Citrobacter RL 49. Put plainly: MIC, in vitro dilution method, Citrobacter RL 49 (Table III). Format: cell-based. The conditions noted are these: RL49. The method in brief: as §1
The test system of test [2] is Proteus vulgaris RL 99 bis. The test is described as follows: MIC, in vitro dilution method, Proteus vulgaris RL 99 bis (Table III). The test is classed as cell-based. The conditions noted are these: RL99BIS. The procedure, abridged:
as §1

Another test deals with Serratia RL 72. The test is described as follows: MIC, in vitro dilution method, Serratia RL 72 (Table III). The conditions noted are these: RL72. The test is classed as cell-based. The method in brief: as §1
For test [3], the system named is Klebsiella RO 30. The test is described as follows: MIC, in vitro dilution method, Klebsiella RO 30 (Table III). The test is classed as cell-based. The conditions noted are these: RO30. The procedure, abridged:
as §1

A further test relates to Enterobacter RO 154. Put plainly: MIC, in vitro dilution method, Enterobacter RO 154 (Table III). The test is classed as cell-based. The conditions noted are these: RO154. The method in brief: as §1
For the next test, the system named is Pseudomonas RL 112. Put plainly: MIC, in vitro dilution method, Pseudomonas RL 112 (Table III). The test is classed as cell-based. The conditions noted are these: RL112. The method in brief: as §1
A further test relates to Escherichia coli 255. Put plainly: MIC on beta-lactamase producing strain Escherichia coli 255 (Table IV). The test is classed as cell-based. The conditions noted are these: Escherichia coli 255, producing beta-lactamases; read-out: MIC. The protocol:
(§2) To evaluate the stability of these products towards beta-lactamases, their MIC was determined on isogenic strains producing and not producing beta-lactamases.
(§3) The results are expressed in μg/ml in Table IV.

The next test deals with Escherichia coli 255/L.7. Put plainly: MIC on strain not producing beta-lactamase, Escherichia coli 255/L.7 (Table IV). The test is classed as cell-based. The conditions noted are these: Escherichia coli 255/L.7 *, not producing beta-lactamases; read-out: MIC. The protocol: as §2, §3
The subject of test [4] is Serrtia liquefaciens SL/326 A. The test is described as follows: MIC on beta-lactamase producing strain Serratia liquefaciens SL/326 A (Table IV). The test is classed as cell-based. How it is done:
as §2, §3

Test [5] relates to Serrtia liquefaciens SL 1326 S. Put plainly: MIC on strain not producing beta-lactamase, Serratia liquefaciens SL 1326 S (Table IV). The test is classed as cell-based. The conditions noted are these: SL1326S, not producing beta-lactamases. How it is done:
as §2, §3

The subject of test [6] is Proteus vulgaris GN 76/C.1. The test is described as follows: MIC on beta-lactamase producing strain Proteus vulgaris GN 76/C.1 (Table IV). Format: cell-based. The conditions noted are these: GN76. How it is done:
as §2, §3

Test [7] has as its system Escherichia coli SOL 90. Put plainly: septicemic model of the mouse, Escherichia coli SOL 90 (Table V). The test is classed as in vivo. The conditions noted are these: SOL90, sc, 96 h, mouse septicemia, sub-cutaneous, 1 to 5 hours after inoculation, 4 days observation, read-out: DE50 (the source's name). The protocol:
The therapeutic effectiveness of the products was determined on the septicemic model of the mouse. the septicemia was initiated by the intraperitoneal innoculation of 0.5 ml of a suitable dilution of a suspension of the Escherichia coli SOL 90 strain. The products were administered in solution in a phosphate buffer pH 7.0 in a volume of 0.2 ml sub-cutaneously to batches of 10 mice, 1 to 5 hours after innoculation of the microorganism. After 4 days of observation in the course of which the mortality was noted, the 50% effective doses (DE 50) were calculated by the Muench and Reed method.

For test [8], the system named is Proteus vulgaris GN 76/C.1/3. Put plainly: MIC on strain not producing beta-lactamase, Proteus vulgaris GN 76/C.1/3 (Table IV). Format: cell-based. The conditions noted are these: GN76, not producing beta-lactamases. How it is done: as §2, §3
The test system of test [9] is Klebsiella RO 30. Put plainly: septicemic model of the mouse, Klebsiella RO 30 (Table V). The conditions noted are these: RO30, sc, 96 h, mouse septicemia, sub-cutaneous, 4 days observation, read-out: DE50 (the source's name). The test is classed as in vivo.
Where [10] appears, read: Citrobacter RL 49, dilution method, read-out: MIC.
Where [11] appears, read: Proteus vulgaris RL 99 bis, dilution method, read-out: MIC.
Where [12] appears, read: Klebsiella RO 30, dilution method, read-out: MIC.
The mark [13] stands for this setting: Enterobacter RO 154, dilution method, read-out: MIC.
The mark [14] stands for this setting: Proteus vulgaris GN 76/C.1, producing beta-lactamases, read-out: MIC.

In brackets after ≈: the same amount, converted by molar mass. Where two headings read alike, the source gives them in different places.

The MIC is the smallest concentration in the dilution series that meets the test's criterion for growth inhibition. In the case of `CC(C)(CN)C(=O)OCC1=C(C(=O)O)N2C(=O)C(NC(=O)/C(=N\OC(C)(C)C(=O)O)c3csc(N)n3)C2[S+]([O-])C1` (stereo not drawn) [42 073], the MIC in the test on Escherichia coli SOL 90 [1] turned out to be 1 µg/mL (≈ 1.66 µM); in the test on Citrobacter RL 49 (setting [10]), 0.5 µg/mL (≈ 0.832 µM); in [2] (setting [11]) it was 0.5 µg/mL (≈ 0.832 µM); in the test on Serratia RL 72, 2 µg/mL (≈ 3.33 µM); with Klebsiella RO 30 [3] (setting [12]), 0.5 µg/mL (≈ 0.832 µM); in the test with Enterobacter RO 154 (setting [13]) it was 4 µg/mL (≈ 6.66 µM). Besides, the MIC with Pseudomonas RL 112 was 4 µg/mL (≈ 6.66 µM); in the test on Escherichia coli 255 it was 0.5 µg/mL (≈ 0.832 µM); with Escherichia coli 255/L.7 it was 0.25 µg/mL (≈ 0.416 µM); in test [4] it was 0.25 µg/mL (≈ 0.416 µM); in test [5] it was at most 0.12 µg/mL; in test [6] (setting [14]), 0.5 µg/mL (≈ 0.832 µM). Besides, the ED50 in the test on Escherichia coli SOL 90 [7] was 0.33 mg/kg.
On to `Cc1c(CN)cccc1C(=O)SCC1=C(C(=O)O)N2C(=O)C(NC(=O)C(=NOC(C)(C)C(=O)O)c3csc(N)n3)C2[S+]([O-])C1` (stereo not drawn) [compound 42535], for which the MIC with Escherichia coli SOL 90 [1] was 0.5 µg/mL (≈ 0.752 µM); with Citrobacter RL 49 (setting [10]) it was 0.25 µg/mL (≈ 0.376 µM); in test [2] (Proteus vulgaris), at most 0.125 µg/mL; with Serratia RL 72, 1 µg/mL (≈ 1.5 µM); in the test on Klebsiella RO 30 [3] (setting [12]), 0.25 µg/mL (≈ 0.376 µM); in the test on Enterobacter RO 154 (setting [13]), 0.5 µg/mL (≈ 0.752 µM). Further, the MIC was 8 µg/mL (≈ 12 µM) against Pseudomonas RL 112; 0.125 µg/mL (≈ 0.188 µM) with Escherichia coli 255; at most 0.0312 µg/mL with Escherichia coli 255/L.7; 0.0625 µg/mL (≈ 0.094 µM) in test [4]; 0.125 µg/mL (≈ 0.188 µM) in test [5]; 0.0625 µg/mL (≈ 0.094 µM) in test [6] (Proteus vulgaris). The molecule also gave an MIC in test [8] of 0.125 µg/mL (≈ 0.188 µM).
Turning to `CC(C)(O/N=C(\C(=O)NC1C(=O)N2C(C(=O)O)=C(COC(=O)CCCCN)C[S+]([O-])C12)c1csc(N)n1)C(=O)O` (stereo not drawn) [41 967], the minimal inhibitory concentration (MIC) with Escherichia coli SOL 90 [1] was 0.25 µg/mL (≈ 0.416 µM); in the test with Citrobacter RL 49 (setting [10]) it was 0.5 µg/mL (≈ 0.832 µM); in [2] (setting [11]) it was at most 0.12 µg/mL; in the test with Serratia RL 72, 0.5 µg/mL (≈ 0.832 µM); in the test with Klebsiella RO 30 [3] (setting [12]), 0.25 µg/mL (≈ 0.416 µM); in the test on Enterobacter RO 154 (setting [13]) it was 2 µg/mL (≈ 3.33 µM). Moreover, the minimum inhibitory concentration (MIC) against Pseudomonas RL 112 was 4 µg/mL (≈ 6.66 µM); with Escherichia coli 255, at most 0.12 µg/mL; in the test on Escherichia coli 255/L.7 it was at most 0.12 µg/mL; in [4], 0.25 µg/mL (≈ 0.416 µM); in test [5] it was at most 0.12 µg/mL; in test [6] (setting [14]), at most 0.12 µg/mL. For the same molecule, in [8], the MIC is at most 0.12 µg/mL.
For `Cc1ccc(CN)c(C)c1C(=O)OCC1=C(C(=O)O)N2C(=O)C(NC(=O)/C(=N\OC(C)(C)C(=O)O)c3csc(N)n3)C2[S+]([O-])C1` (stereo not drawn) [42 457], the MIC in the test on Escherichia coli SOL 90 [1] is 0.5 µg/mL (≈ 0.754 µM); in the test on Citrobacter RL 49 (setting [10]), 0.25 µg/mL (≈ 0.377 µM); in [2] (Proteus vulgaris), at most 0.125 µg/mL; against Serratia RL 72, 0.5 µg/mL (≈ 0.754 µM); in the test with Klebsiella RO 30 [3] (setting [12]), 0.25 µg/mL (≈ 0.377 µM); with Enterobacter RO 154 (setting [13]) it was 0.25 µg/mL (≈ 0.377 µM). Moreover, the minimum inhibitory concentration (MIC) in the test on Pseudomonas RL 112 is 8 µg/mL (≈ 12.1 µM); with Escherichia coli 255 it was 0.125 µg/mL (≈ 0.189 µM); with Escherichia coli 255/L.7 it was at most 0.0312 µg/mL; in test [4] it was 0.0625 µg/mL (≈ 0.0943 µM); in test [5], 0.0625 µg/mL (≈ 0.0943 µM); in test [6] (Proteus vulgaris), at most 0.0312 µg/mL. The minimal inhibitory concentration (MIC) in test [8] is 0.0625 µg/mL (≈ 0.0943 µM).
For `CC(C)(ON=C(C(=O)NC1C(=O)N2C(C(=O)O)=C(CSC(=O)C3CCNCC3)C[S+]([O-])C12)c1csc(N)n1)C(=O)O` (stereo not drawn) [compound 41973], the MIC with Escherichia coli 255 is 0.25 µg/mL (≈ 0.398 µM); in the test on Escherichia coli 255/L.7 it was 0.25 µg/mL (≈ 0.398 µM); in [4], 0.25 µg/mL (≈ 0.398 µM); in [5], at most 0.12 µg/mL; in [6] (setting [14]), 0.5 µg/mL (≈ 0.795 µM). For the same molecule, the ED50 in the test on Escherichia coli SOL 90 [7] stood at 0.22 mg/kg; in the test on Klebsiella RO 30 [9] it was 0.4 mg/kg.
On to `Cc1c(CN)cccc1C(=O)OCC1=C(C(=O)O)N2C(=O)C(NC(=O)/C(=N\OC(C)(C)C(=O)O)c3csc(N)n3)C2[S+]([O-])C1` (stereo not drawn) [42 456], for which the MIC in the test on Escherichia coli SOL 90 [1] is 0.25 µg/mL (≈ 0.385 µM); with Citrobacter RL 49 (Citrobacter), at most 0.125 µg/mL; in [2] (Proteus vulgaris), at most 0.125 µg/mL; in the test on Serratia RL 72 it was 0.5 µg/mL (≈ 0.771 µM); in the test on Klebsiella RO 30 [3] (Klebsiella), at most 0.125 µg/mL; with Enterobacter RO 154 (Enterobacter), at most 0.125 µg/mL. The minimum inhibitory concentration (MIC) in the test with Pseudomonas RL 112 is 4 µg/mL (≈ 6.17 µM); with Escherichia coli 255 it was 0.0625 µg/mL (≈ 0.0964 µM); in the test with Escherichia coli 255/L.7 it was at most 0.0312 µg/mL; in test [4] it was 0.25 µg/mL (≈ 0.385 µM); in test [5], 0.0625 µg/mL (≈ 0.0964 µM); in test [6] (Proteus vulgaris), at most 0.0312 µg/mL. Also, the minimal inhibitory concentration (MIC) in [8] was determined as 0.125 µg/mL (≈ 0.193 µM).

The record behind these values is US4656166A, “Antibiotic compounds derived from cephalosporins, process for their production and pharmaceutical compositions” (Sanofi, priority 1983, dated 1987).
